Measurements from patent US11999746B2, “Compounds” (GlaxoSmithKline Intellectual Property Development Limited, priority 2014, dated 2024).

What was measured:
[1] = target: T1, Lp-PLA2 in human plasma (Homo sapiens, UniProt Q13093); assay: (3a) Lp-PLA2 human plasma Thio-PAF assay; format: biochemical; conditions: (3a) Thio-PAF assay, pooled human plasma; Examples 1-265 and 413-430 were tested here; read-out: pIC50 in the Lp-PLA2 human plasma assay (converted)
T1 construct: from tissue; host or cells: pooled human plasma
T1 sequence (Q13093 22-441): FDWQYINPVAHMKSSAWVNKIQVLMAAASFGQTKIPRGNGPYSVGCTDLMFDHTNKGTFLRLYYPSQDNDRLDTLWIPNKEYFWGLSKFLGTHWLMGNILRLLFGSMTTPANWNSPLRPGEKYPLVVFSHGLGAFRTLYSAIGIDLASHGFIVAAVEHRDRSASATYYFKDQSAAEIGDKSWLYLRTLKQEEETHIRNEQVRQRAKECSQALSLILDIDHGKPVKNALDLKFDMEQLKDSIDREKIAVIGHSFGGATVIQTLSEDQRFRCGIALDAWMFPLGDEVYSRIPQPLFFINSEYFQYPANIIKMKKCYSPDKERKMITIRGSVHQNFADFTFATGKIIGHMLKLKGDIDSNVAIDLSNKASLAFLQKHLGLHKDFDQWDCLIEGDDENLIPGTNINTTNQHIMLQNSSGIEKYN
Method in brief: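 Pooled human plasma preincubated 30 min with serially diluted compound, then given 2-thio-PAF substrate with CPM and NEM in 50 mM HEPES pH 7.4, 150 mM NaCl, 1 mM CHAPS. Reaction quenched with TFA after 2 min; CPM thiol-adduct fluorescence read at ex 380/em 485 after 40 min; pIC50 reported.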

[2] = target: T2, recombinant human Lp-PLA2 (Homo sapiens, UniProt Q13093); assay: (1a) PED6 assay, recombinant human Lp-PLA2 (rhLp-PLA2); format: biochemical; conditions: Examples 1-167 and 413-430 were tested here, one experiment or average of multiple experiments, read-out: rhLp-PLA2 (pIC50) (converted)
T2 sequence (Q13093 22-441): T1 sequence (Q13093 22-441)
Method in brief: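 PED6 (2 μM final after 1:1 addition of 4 μM stock) cleavage by rhLp-PLA2 (4 nM working solution) in 50 mM HEPES pH 7.4, 150 mM NaCl, 1 mM CHAPS; compounds preincubated with enzyme 30 minutes, reaction 20 min at room temperature. Fluorescence at ex 480/em 540; pIC50 from curve fit.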

Compound	IC50 [1]	IC50 [2]
N#Cc1cc(Oc2ccc(COc3cc4n(c(=O)n3)CC3CCCCN43)cc2F)cc(C(F)(F)F)c1 (stereo not shown) [Example E28, 3-(2-Fluoro-4-(((1-oxo-6,7,8,9,9a,10-hexahydro-1H-pyrido[1′,2′:3,4]imidazo[1,2-c]pyrimidin-3-yl)oxy)methyl)phenoxy)-5-(trifluoromethyl)benzonitrile]	≤ 100 nM	≤ 1 nM
O=c1nc(OCc2cc(F)cc(Cl)c2)cc2n1CC1CCCCN21 (stereo not shown) [Example E29, 3-((3-Chloro-5-fluorobenzyl)oxy)-6,7,8,9,9a,10-hexahydro-1H-pyrido[1′,2′:3,4]imidazo[1,2-c]pyrimidin-1-one]	≤ 10000 nM	≤ 100 nM
O=c1nc(OCc2ccc(F)c(F)c2)cc2n1C[C@H]1CCCCN21 [Example E30, (R)-3-((3,4-Difluorobenzyl)oxy)-6,7,8,9,9a,10-hexahydro-1H-pyrido[1′,2′:3,4]imidazo[1,2-c]pyrimidin-1-one]	≤ 100 nM	≤ 100 nM
O=c1nc(OCc2ccc(F)c(F)c2)cc2n1C[C@@H]1CCCCN21 [Example E31, (S)-3-((3,4-Difluorobenzyl)oxy)-6,7,8,9,9a,10-hexahydro-1H-pyrido[1′,2′:3,4]imidazo[1,2-c]pyrimidin-1-one]	≤ 10000 nM	≤ 100 nM
O=c1nc(OCc2cc(F)c(F)c(F)c2)cc2n1C[C@@H]1CCCCN21 [Example E32, (S)-3-((3,4,5-Trifluorobenzyl)oxy)-6,7,8,9,9a,10-hexahydro-1H-pyrido[1′,2′:3,4]imidazo[1,2-c]pyrimidin-1-one]	≤ 10000 nM	≤ 100 nM
N#Cc1cccc(COc2cc3n(c(=O)n2)C[C@@H]2CCCCN32)c1 [Example E33, (S)-3-(((1-Oxo-6,7,8,9,9a,10-hexahydro-1H-pyrido[1′,2′:3,4]imidazo[1,2-c]pyrimidin-3-yl)oxy)methyl)benzonitrile]	≤ 10000 nM	≤ 100 nM
O=c1nc(OCc2ccc(F)cc2)cc2n1C[C@@H]1CCCCN21 [Example E34, (S)-3-((4-Fluorobenzyl)oxy)-6,7,8,9,9a,10-hexahydro-1H-pyrido[1′,2′:3,4]imidazo-[1,2-c] pyrimidin-1-one]	≤ 10000 nM	≤ 100 nM
O=c1nc(OCc2cc(F)cc(F)c2)cc2n1C[C@@H]1CCCCN21 [Example E35, (S)-3-((3,5-Difluorobenzyl)oxy)-6,7,8,9,9a,10-hexahydro-1H-pyrido[1′,2′:3,4]imidazo[1,2-c]pyrimidin-1-one]	≤ 10000 nM	≤ 100 nM
O=c1nc(OCCc2cccs2)cc2n1C[C@@H]1CCCCN21 [Example E36, (S)-3-(2-(Thiophen-2-yl)ethoxy)-6,7,8,9,9a,10-hexahydro-1H-pyrido[1′,2′:3,4]imidazo[1,2-c]pyrimidin-1-one]	≤ 10000 nM	≤ 100 nM
O=c1nc(OCc2cc(F)c(Oc3ccnc(C(F)(F)F)c3)c(F)c2)cc2n1CC1CCCCN21 (stereo not shown) [Example E37, 3-((3,5-difluoro-4-((2-(trifluoromethyl)pyridin-4-yl)oxy)benzyl)oxy)-6,7,8,9,9a,10-hexahydro-1H-pyrido[1′,2′:3,4]imidazo[1,2-c]pyrimidin-1-one]	≤ 100 nM	≤ 1 nM
O=c1nc(OCc2ccc(Oc3ccc(C(F)(F)F)nc3)c(F)c2)cc2n1CC1CCCCN21 (stereo not shown) [Example E38, 3-((3-Fluoro-4-((6-(trifluoromethyl)pyridin-3-yl)oxy)benzyl)oxy)-6,7,8,9,9a,10-hexahydro-1H-pyrido[1′,2′:3,4]imidazo[1,2-c]pyrimidin-1-one]	≤ 100 nM	≤ 1 nM
O=c1nc(OCc2cc(F)c(Oc3ccc(C(F)(F)F)nc3)c(F)c2)cc2n1CC1CCCCN21 (stereo not shown) [Example E39, 3-((3,5-Difluoro-4-((6-(trifluoromethyl)pyridin-3-yl)oxy)benzyl)oxy)-6,7,8,9,9a,10-hexahydro 1H-pyrido[1′,2′:3,4]imidazo[1,2-c]pyrimidin-1-one]	≤ 100 nM	≤ 1 nM
O=c1nc(OCc2ccc(Oc3ccnc(C(F)(F)F)c3)c(F)c2)cc2n1C[C@@H]1CCCCN21 [Example E40, (S)-3-((3-Fluoro-4-((2-(trifluoromethyl)pyridin-4-yl)oxy)benzyl)oxy)-6,7,8,9,9a,10-hexahydro-1H-pyrido[1′,2′:3,4]imidazo[1,2-c]pyrimidin-1-one]	≤ 100 nM	≤ 1 nM
O=c1nc(OCc2cc(F)c(Oc3ccnc(C(F)(F)F)c3)c(F)c2)cc2n1CC1CCCCN21 (stereo not shown) [Example E41]	≤ 100 nM	≤ 1 nM
O=c1nc(OCc2ccc(Oc3cncc(C(F)(F)F)c3)c(F)c2)cc2n1C[C@@H]1CCCCN21 [Example E42, (S)-3-((3-fluoro-4-((5-(trifluoromethyl)pyridin-3-yl)oxy)benzyl)oxy)-6,7,8,9,9a,10-hexahydro-1H-pyrido[1′,2′:3,4]imidazo[1,2-c]pyrimidin-1-one]	≤ 100 nM	≤ 1 nM
O=c1nc(OCc2ccc(Oc3cnc(C(F)(F)F)nc3)c(F)c2)cc2n1CC1CCCCN21 (stereo not shown) [Example E43, 3-((3-fluoro-4-((2-(trifluoromethyl)pyrimidin-5-yl)oxy)benzyl)oxy)-6,7,8,9,9a,10-hexahydro-1H-pyrido[1′,2′:3,4]imidazo[1,2-c]pyrimidin-1-one]	≤ 100 nM	≤ 100 nM
O=c1nc(OCc2ccc(Oc3ccnc(C(F)(F)F)c3)c(F)c2)cc2n1CC1CCCCN21 (stereo not shown) [Example E44, 3-((3-Fluoro-4-((2-(trifluoromethyl)pyridin-4-yl)oxy)benzyl)oxy)-6,7,8,9,9a,10-hexahydro-1H-pyrido[1′,2′:3,4]imidazo[1,2-c]pyrimidin-1-one]	≤ 100 nM	≤ 1 nM
O=c1nc(OCc2cc(F)c(Oc3ccnc(C(F)(F)F)c3)c(F)c2)cc2n1CC1CCCCN21 (stereo not shown) [Example E45, 3-((3,5-Difluoro-4-((2-(trifluoromethyl)pyridin-4-yl)oxy)benzyl)oxy)-6,7,8,9,9a,10-hexahydro-1H-pyrido[1′,2′:3,4]imidazo[1,2-c]pyrimidin-1-one]	≤ 100 nM	≤ 1 nM
O=c1nc(OCc2ccc(Oc3cnc(C(F)(F)F)nc3)c(F)c2)cc2n1CC1CCCCN21 (stereo not shown) [Example E46, 3-((3-Fluoro-4-((2-(trifluoromethyl)pyrimidin-5-yl)oxy)benzyl)oxy)-6,7,8,9,9a,10-hexahydro-1H-pyrido[1′,2′:3,4]imidazo[1,2-c]pyrimidin-1-one]	≤ 100 nM	≤ 1 nM
O=c1nc(OCc2ccc(Oc3cncc(C(F)(F)F)c3)c(F)c2)cc2n1CC1CCCCN21 (stereo not shown) [Example E47, 3-((3-Fluoro-4-((5-(trifluoromethyl)pyridin-3-yl)oxy)benzyl)oxy)-6,7,8,9,9a,10-hexahydro-1H-pyrido[1′,2′:3,4]imidazo[1,2-c]pyrimidin-1-one]	≤ 100 nM	≤ 1 nM
O=c1nc(OCc2ccc(Oc3ccc(C(F)(F)F)nc3)c(F)c2)cc2n1CC1CCCCN21 (stereo not shown) [Example E48, 3-((3-Fluoro-4-((6-(trifluoromethyl)pyridin-3-yl)oxy)benzyl)oxy)-6,7,8,9,9a,10-hexahydro-1H-pyrido[1′,2′:3,4]imidazo[1,2-c]pyrimidin-1-one]	≤ 10000 nM	≤ 1 nM
O=c1nc(OCc2cc(F)c(Oc3ccc(C(F)(F)F)nc3)c(F)c2)cc2n1CC1CCCCN21 (stereo not shown) [Example E49, 3-((3,5-difluoro-4-((6-(trifluoromethyl)pyridin-3-yl)oxy)benzyl)oxy)-6,7,8,9,9a,10-hexahydro-1H-pyrido[1′,2′:3,4]imidazo[1,2-c]pyrimidin-1-one]	≤ 100 nM	≤ 1 nM
Cn1cc(Oc2c(F)cc(COc3cc4n(c(=O)n3)C[C@@H]3CCCCN43)cc2F)cn1 [Example E50, (S)-3-((3,5-difluoro-4-((1-methyl-1H-pyrazol-4-yl)oxy)benzyl)oxy)-6,7,8,9,9a,10-hexahydro-1H-pyrido[1′,2′:3,4]imidazo[1,2-c]pyrimidin-1-one]	≤ 10000 nM	≤ 100 nM
Cn1cc(Oc2ccc(COc3cc4n(c(=O)n3)C[C@@H]3CCCCN43)cc2F)cn1 [Example E51, (S)-3-((3-fluoro-4-((1-methyl-1H-pyrazol-4-yl)oxy)benzyl)oxy)-6,7,8,9,9a,10-hexahydro-1H-pyrido[1,2′:3,4]imidazo[1,2-c]pyrimidin-1-one]	≤ 10000 nM	≤ 100 nM
O=c1nc(OCc2cccc(F)c2)cc2n1C[C@H]1CCCCN21 [Example E52, (R)-3-((3-Fluorobenzyl)oxy)-6,7,8,9,9a,10-hexahydro-1H-pyrido[1′,2′:3,4]imidazo[1,2-c] pyrimidin-1-one]	≤ 100 nM	≤ 100 nM
O=c1nc(OCc2cc(F)cc(F)c2)cc2n1C[C@H]1CCCCN21 [Example E53, (R)-3-((3,5-Difluorobenzyl)oxy)-6,7,8,9,9a,10-hexahydro-1H-pyrido[1′,2′:3,4]imidazo[1,2-c] pyrimidin-1-one]	≤ 10000 nM	≤ 100 nM
